Usually IC50 stands for the concentration at which inhibition is half-maximal. A low value points to greater potency in that assay.

The values that follow come from patent publication US8173428B2, “LNA oligonucleotides and the treatment of cancer” (Santaris Pharma A/S, priority 2004, dated 2012).

Oligonucleotides are written 5' to 3', each unit as a sugar letter and its base; * is a phosphorothioate linkage, no mark a phosphodiester; rarer units and linkages stand in square brackets, end groups in braces. Plain capitals give the bases only. l = locked nucleic acid (LNA); [5mC] = 5-methylcytosine; d = 2'-deoxy (DNA)

The subject of series [1] is Survivin full length, Survivin2B and SurvivinΔex3 mRNA. Briefly: Survivin splice variant mRNA expression by real-time PCR in 15PC3 cells. The class given is cell-based, human. The note with it: 5 nM, normalised to GAPDH, relative to mock. The procedure: Cell culturing and transfections: 15PC3 cells were seeded in 12-well plates and grown for two days at 37° C. (5% CO2) in DMEM supplemented with 10% FBS, Glutamax I and Gentamicin. When the cells were 60-70% confluent, they were transfected in duplicates with different concentrations of oligonucleotides (0.2-25 nM) using Lipofectamine 2000 (10 μg/ml). Transfections were carried out essentially as described by Dean et al. (1994, JBC 269:16416-16424). In short, cells were incubated for 10 min. with Lipofectamine in OptiMEM followed by addition of oligonucleotide to a total volume of 0.5 ml transfection mix per well. […]
(§1) To determine the relative Survivin mRNA level in oligonucleotide treated and untreated cells, the generated cDNA was used in quantitative PCR analysis using an iCycler from BioRad. The cDNA was diluted 5-fold and 8 μl was mixed with 52 μl Taqman probe master mix containing 30 μl Platinum Quantitative PCR SuperMix UDG 2×PCR master mix (Invitrogen), 3 μl 20× Taqman probe and primer mix (forward primer: 5′[…] (SEQ ID NO:29), final 0.9 μM. Reverse primer: 5′[…] (SEQ ID NO:30), final 0.6 μM and taqman probe: FAM-[…]-TAMRA (SEQ ID NO:31), final 0.1 μM) and 19 μl H2O. […]
The primers and probe were obtained from Proligonucleotide (France). […] Relative quantities of Survivin mRNA were determined from the calculated threshold cycle using the iCycler IQ Real Time Detection System software.
In general terms: Real-time PCR tracks product formation cycle by cycle.

Another series has as its system human Survivin RNA. The experiment in a line: Survivin mRNA knockdown in transfected 15PC3 cells by real-time PCR. The class given is cell-based. The procedure:
Cell culturing and transfections: 15PC3 cells were seeded in 12-well plates and grown for two days at 37° C. (5% CO2) in DMEM supplemented with 10% FBS, Glutamax I and Gentamicin. When the cells were 60-70% confluent, they were transfected in duplicates with different concentrations of oligonucleotides (0.2-25 nM) using Lipofectamine 2000 (10 μg/ml). Transfections were carried out essentially as described by Dean et al. (1994, JBC 269:16416-16424). In short, cells were incubated for 10 min. with Lipofectamine in OptiMEM followed by addition of oligonucleotide to a total volume of 0.5 ml transfection mix per well. […] Cells were then harvested for protein and RNA analysis.
Total RNA was isolated using RNeasy mini kit (Qiagen). Cells were washed with PBS, and Cell Lysis Buffer (RTL, Qiagen) supplemented with 1% mercaptoethanol was added directly to the wells. After a few minutes, the samples were processed according to manufacturer's instructions.
First strand synthesis was performed using OmniScript Reverse Transcriptase kit according to the manufacturer's instructions (Qiagen). For each sample, 0.5 μg total RNA was adjusted to 12 μl and mixed with 0.2 μl poly (dT)12-18 (0.5 μg/μl) (Life Technologies), 2 μl dNTP mix (5 mM each), 2 μl 10× RT buffer, 0.5 μl RNAguard™ RNase Inhibitor (33 units/ml, Amersham) and 1 μl OmniScript Reverse Transcriptase followed by incubation at 37° C. for 60 min. and heat inactivation at 93° C. for 5 min.
as §1, with “H2O. The 60 μl were dispersed in two wells (96 well plates) with […] in each well. For human Bcl-2 the PCR primers were:” for “H2O.”
The primers and probe were obtained from […] (France). To normalize any variance in sample preparation, the endogenous GAPDH mRNA was quantified using a pre-developed Taqman assay reagent from Applied Biosystems (4310884E) according to manufacturer's Instructions. Two-fold dilutions of cDNA, synthesised from untreated 15PC3 cells (expressing both Survivin and GAPDH), was used to prepare standard curves for the assays. The PCR program was as follows: 50° C. for 2 min., 95° C. for 10 min. followed by 40 cycles of 95° C. 15 sec., 60° C. 1 min. Relative quantities of Survivin mRNA were determined from the calculated threshold cycle using the iCycler IQ Real Time Detection System software.
In accordance with the present invention, a series of oligonucleotides were designed to target different regions of the human Survivin RNA, using published sequences (GenBank accession number NM_001168).
LNA oligonucleotides were evaluated for their potential to knockdown Survivin mRNA in 15PC3 cells. The data are presented as percentage down-regulation relative to mock transfected cells. Transcript steady state was monitored by Real-time PCR and normalised to the GAPDH transcript steady state, see Table 3. Note that all LNA C are 5-methyl-Cytosine.

The mark [2] stands for this setting: Survivin mRNA down-regulation relative to mock, normalised to GAPDH, standard deviation in brackets, at least three experiments.

As to “5′-^MeCsTs^MeCsAsastscscsastsgsgs^MeCsAsGsc-3′ (l[5mC]*lT*l[5mC]*lA*dA*dT*dC*dC*dA*dT*dG*dG*l[5mC]*lA*lG*dC) [SEQ ID NO. 2]”, in series [1], the “Expression of the 3 isoforms of Survivin mRNA” value was “able to down-regulate all expressed isoforms of human Survivin”. The “Survivin mRNA expression” value was “down-regulated” with human Survivin RNA (2 nM combined with 10 nM Taxol, 24 hours and 48 hours, relative to mock (0.1% DMSO)); “down-regulated” with human Survivin RNA (2 nM, 24 hours and 48 hours, relative to mock (0.1% DMSO)); “have effects on Survivin and Bcl-2 expression” with human Survivin RNA (10 nM, 24 hours, single agent or combined with control oligonucleotides). In the series on human Survivin RNA (setting [2]), this substance gave an IC50 of 2.9 nM. Also, the “IC75 [nM]” value with human Survivin RNA (setting [2]) was 4.8 (0.3) nM.
